From patent US20140249135A1, “PIM KINASE INHIBITORS AND METHODS OF THEIR USE” (NOVARTIS AG, priority 2007, published 2014) come the findings set out here.

Assay [1] deals with Pim3 kinase (Homo sapiens, UniProt Q86V86). The assay can be described thus: Pim3 ATP depletion assay. Format: biochemical.
The target in assay [2] is Pim1 kinase (Homo sapiens, UniProt P11309). In words: Pim1 ATP depletion assay.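 Also: Luciferase-luciferin luminescence readout of residual ATP after PIM1 transfers phosphate to a peptide substrate, 40 µM ATP added, reaction run to roughly half ATP consumption.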 The note with it: Pim1 ATP depletion assay. In kind it is biochemical.
Sequence of Pim1 kinase (P11309 whole entry): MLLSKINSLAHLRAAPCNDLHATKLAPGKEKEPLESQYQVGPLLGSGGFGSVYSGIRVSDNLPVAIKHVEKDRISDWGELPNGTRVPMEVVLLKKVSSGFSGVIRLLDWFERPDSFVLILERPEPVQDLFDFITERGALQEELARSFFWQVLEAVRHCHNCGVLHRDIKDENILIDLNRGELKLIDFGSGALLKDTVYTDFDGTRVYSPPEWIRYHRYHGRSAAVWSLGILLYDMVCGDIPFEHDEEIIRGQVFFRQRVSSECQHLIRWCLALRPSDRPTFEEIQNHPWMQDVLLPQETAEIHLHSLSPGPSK
For assay [3], the system named is HEL 92.1.7 cells. The assay can be described thus: Cell proliferation assay (CellTiter-Glo), HEL 92.1.7. The settings on record: Homo sapiens. In kind it is cell-based. Here is the method: HEL 92.1.7 cells (ATTC No. TIB-180, an erythroleukemia line derived from malignant peripheral blood), MV4-11 cells (ATCC No. CRL-9591, a human acute monocytic leukemia line) and PC3 cells (ATCC No. CRL-1435, a human prostatic adenocarcinoma line) were cultured in RPMI1640 supplemented with 10% FBS, sodium pyruvate and antibiotics. Cells were plated in the same medium at a density of 1000 cells per well into 96 well tissue culture plates, with outside wells vacant, on the day of assay.
Test compounds supplied in DMSO were diluted into DMSO at 500 times the desired final concentrations before dilution into culture media to 2 times final concentrations. Equal volumes of 2× compounds were added to the cells in 96 well plates and incubated at 37° C. for 3 days.
After 3 days plates were equilibrated to room temperature and equal volume of CellTiter-Glow Reagent (Promega) was added to the culture wells. The plates were agitated briefly and luminescent signal was measured with luminometer. The percent inhibition of the signal seen in cells treated with DMSO alone vs. cells treated with control compound was calculated and used to determine EC50 values (i.e., the concentration of a test compound that is required to obtain 50% of the maximum effect in the cells) for tested compounds, as shown in Example 763.
In general terms: Cellular ATP, detected with luciferase, serves as a proxy for viable cell number.

Assay [4] concerns the target Pim2 kinase (Homo sapiens, UniProt Q9P1W9). In words: Pim2 ATP depletion assay.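 Also: Luciferase-based luminescent readout of ATP remaining after PIM2 phosphorylates a BAD peptide, final 5 nM enzyme, 4 µM ATP, 10 µM peptide, 2.5% DMSO, run to roughly half ATP consumption.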 In kind it is biochemical.

Each structure is given as a SMILES string. Like-named read-outs stand apart in the source and are kept apart here.

Sequence of Pim2 kinase (Q9P1W9 whole entry): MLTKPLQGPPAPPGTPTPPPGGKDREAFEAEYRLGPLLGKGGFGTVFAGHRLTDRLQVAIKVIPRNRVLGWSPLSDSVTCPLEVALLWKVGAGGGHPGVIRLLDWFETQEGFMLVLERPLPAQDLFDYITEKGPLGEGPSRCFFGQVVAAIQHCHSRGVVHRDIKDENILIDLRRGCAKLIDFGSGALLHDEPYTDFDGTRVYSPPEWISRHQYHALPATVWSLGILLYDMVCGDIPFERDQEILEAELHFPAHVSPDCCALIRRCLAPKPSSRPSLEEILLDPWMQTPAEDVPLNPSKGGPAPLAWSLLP

What is called IC50 is the concentration that inhibits the measured activity by half. The term EC50 denotes the concentration at which the effect is half-maximal. For `Cc1ccc(S(=O)(=O)N(C)C)cc1-c1ccc(N)c(C(=O)Nc2cnccc2N2CCC[C@H](N)C2)n1` [Example 330, 3-amino-6-(5-dimethyl-sulfamoyl-2-methyl-phenyl)-pyridine-2-carboxylic acid ((S)-3-amino-3,4,5,6-tetra-hydro-2H-[1,4′]bipyridinyl-3′-yl)-amide], the IC50 in assay [1] (read-out: IC50 (μM) PIM3), in assay [2] (read-out: IC50 (μM) PIM1) and in assay [4] (read-out: IC50 (μM) PIM2) was less than 1 µM throughout. The EC50 in assay [3] (read-out: EC50 (μM) HEL 92.1.7) was greater than 10 µM.

On to `Nc1ccc(-c2cccnc2Cl)nc1C(=O)Nc1cnccc1N1CCC[C@H](N)C1` [Example 331, 5-amino-2′-chloro-[2,3′]bi-pyridinyl-6-carboxylic acid ((S)-3-amino-3,4,5,6-tetra-hydro-2H-[1,4′]bipyridinyl-3′-yl)-amide], for which the half-maximal inhibitory concentration (IC50) in assay [1] (read-out: IC50 (μM) PIM3), in assay [2] (read-out: IC50 (μM) PIM1) and in assay [4] (read-out: IC50 (μM) PIM2) was less than 1 µM throughout. The EC50 in assay [3] (read-out: EC50 (μM) HEL 92.1.7) lay in the range of 1 to 5 µM.

As to `CNC(=O)c1ccc(F)c(-c2ccc(N)c(C(=O)Nc3cnccc3N3CCC[C@H](N)C3)n2)c1` [Example 334, 3-amino-6-(2-fluoro-5-methylcarbamoyl-phenyl)-pyridine-2-carboxylic acid ((S)-3-amino-3,4,5,6-tetra-hydro-2H-[1,4′]bipyridinyl-3′-yl)-amide], the IC50 in assay [1] (read-out: IC50 (μM) PIM3), in assay [2] (read-out: IC50 (μM) PIM1) and in assay [4] (read-out: IC50 (μM) PIM2) was less than 1 µM throughout. The EC50 in assay [3] (read-out: EC50 (μM) HEL 92.1.7) is 5 to 10 µM.

Take `Cc1ccc(S(=O)(=O)NC(C)(C)C)cc1-c1ccc(N)c(C(=O)Nc2cnccc2N2CCC[C@H](N)C2)n1` [Example 335, 3-amino-6-(5-tert-butyl-sulfamoyl-2-methyl-phenyl)-pyridine-2-carboxylic acid ((S)-3-amino-3,4,5,6-tetra-hydro-2H-[1,4′]bipyridinyl-3′-yl)-amide]: the IC50 in assay [1] (read-out: IC50 (μM) PIM3), in assay [2] (read-out: IC50 (μM) PIM1) and in assay [4] (read-out: IC50 (μM) PIM2) was less than 1 µM each time. Besides, in assay [3] (read-out: EC50 (μM) HEL 92.1.7), the EC50 lay within 5 to 10 µM.

As for `COc1ccccc1-c1ccc(N)c(C(=O)Nc2cnccc2N2CCC[C@H](N)C2)n1` [Example 337], the IC50 in assay [1] (read-out: IC50 (μM) PIM3), in assay [2] (read-out: IC50 (μM) PIM1) and in assay [4] (read-out: IC50 (μM) PIM2) was less than 1 µM each time. Moreover, the EC50 in assay [3] (read-out: EC50 (μM) HEL 92.1.7) lay in the range of 5 to 10 µM.

`Nc1ccc(-c2ccncc2F)nc1C(=O)Nc1cnccc1N1CCC[C@H](N)C1` [Example 339, 5-amino-3′-fluoro-[2,4′]bi-pyridinyl-6-carboxylic acid ((S)-3-amino-3,4,5,6-tetra-hydro-2H-[1,4′]bipyridinyl-3′-yl)-amide]: the IC50 in assay [1] (read-out: IC50 (μM) PIM3), in assay [2] (read-out: IC50 (μM) PIM1) and in assay [4] (read-out: IC50 (μM) PIM2) was less than 1 µM each time. Further, the EC50 in assay [3] (read-out: EC50 (μM) HEL 92.1.7) lay in the range of 1 to 5 µM.

For `Nc1ncc(-c2ccc(O)cc2)nc1C(=O)Nc1cnccc1N1CCCC(N)C1` (stereo not shown) [Example 358, 3-amino-6-(4-hydroxy-phenyl)-pyrazine-2-carboxylic acid (3-amino-3,4,5,6-tetra-hydro-2H-[1,4′]bipyridinyl-3′-yl)-amide], the IC50 in assay [1] (read-out: IC50 (μM) PIM3), in assay [2] (read-out: IC50 (μM) PIM1) and in assay [4] (read-out: IC50 (μM) PIM2) was less than 1 µM in each case. Moreover, the EC50 in assay [3] (read-out: EC50 (μM) HEL 92.1.7) was less than 1 µM.

Turning to `Nc1cc(-c2ccc(N)c(C(=O)Nc3cnccc3N3CCC[C@H](N)C3)n2)ccn1` [Example 412, 5,2′-diamino-[2,4′]bipyridinyl-6-carboxylic acid ((S)-3-amino-3,4,5,6-tetrahydro-2H-[1,4′]bi-pyridinyl-3′-yl)-amide], the 50% inhibitory concentration (IC50) in assay [1] (read-out: IC50 (μM) PIM3), in assay [2] (read-out: IC50 (μM) PIM1) and in assay [4] (read-out: IC50 (μM) PIM2) was less than 1 µM throughout. Besides, the EC50 in assay [3] (read-out: EC50 (μM) HEL 92.1.7) fell in the range of 5 to 10 µM.

As for `COc1cccc(-c2ccc(N)c(C(=O)Nc3cnccc3N3CCC[C@H](N)C3)n2)n1` [Example 413, 5-amino-6′-methoxy-[2,2′]bi-pyridinyl-6-carboxylic acid ((S)-3-amino-3,4,5,6-tetrahydro-2H-[1,4′]bipyridinyl-3′-yl)-amide], the IC50 in assay [1] (read-out: IC50 (μM) PIM3), in assay [2] (read-out: IC50 (μM) PIM1) and in assay [4] (read-out: IC50 (μM) PIM2) was less than 1 µM each time. The 50% effective concentration (EC50) in assay [3] (read-out: EC50 (μM) HEL 92.1.7) is less than 1 µM.

Take `Nc1ccc(-c2cccnc2)nc1C(=O)Nc1cnccc1N1CCC[C@H](N)C1` [Example 414, 5-amino-[2,3′]bipyridinyl-6-carboxylic acid ((S)-3-amino-3,4,5,6-tetrahydro-2H-[1,4′]bi-pyridinyl-3′-yl)-amide]: the IC50 in assay [1] (read-out: IC50 (μM) PIM3), in assay [2] (read-out: IC50 (μM) PIM1) and in assay [4] (read-out: IC50 (μM) PIM2) was less than 1 µM in each case. The EC50 in assay [3] (read-out: EC50 (μM) HEL 92.1.7) was 1 to 5 µM.

Regarding `Nc1ccc(-c2ccncc2)nc1C(=O)Nc1cnccc1N1CCC[C@H](N)C1` [Example 415, 5-amino-[2,4′]bipyridinyl-6-carboxylic acid ((S)-3-amino-3,4,5,6-tetrahydro-2H-[1,4′]bi-pyridinyl-3′-yl)-amide], the IC50 in assay [1] (read-out: IC50 (μM) PIM3), in assay [2] (read-out: IC50 (μM) PIM1) and in assay [4] (read-out: IC50 (μM) PIM2) was less than 1 µM each time. Further, in assay [3] (read-out: EC50 (μM) HEL 92.1.7), the EC50 was less than 1 µM.

Turning to `Nc1ccc(-c2cccnc2F)nc1C(=O)Nc1cnccc1N1CCC[C@H](N)C1` [Example 419, 5-amino-2′-fluoro-[2,3′]bi-pyridinyl-6-carboxylic acid ((S)-3-amino-3,4,5,6-tetrahydro-2H-[1,4′]bipyridinyl-3′-yl)-amide], the IC50 in assay [1] (read-out: IC50 (μM) PIM3), in assay [2] (read-out: IC50 (μM) PIM1) and in assay [4] (read-out: IC50 (μM) PIM2) was less than 1 µM throughout. In addition, the EC50 in assay [3] (read-out: EC50 (μM) HEL 92.1.7) was 1 to 5 µM.

As for `COc1ncccc1-c1ccc(N)c(C(=O)Nc2cnccc2N2CCC[C@H](N)C2)n1` [Example 423, 5-amino-2′-methoxy-[2,3′]bi-pyridinyl-6-carboxylic acid ((S)-3-amino-3,4,5,6-tetrahydro-2H-[1,4′]bipyridinyl-3′-yl)-amide], the IC50 in assay [1] (read-out: IC50 (μM) PIM3), in assay [2] (read-out: IC50 (μM) PIM1) and in assay [4] (read-out: IC50 (μM) PIM2) was less than 1 µM in each case. Further, the EC50 in assay [3] (read-out: EC50 (μM) HEL 92.1.7) was in the range of 1 to 5 µM.

Consider `Cc1cccc(C)c1-c1ccc(N)c(C(=O)Nc2cnccc2N2CCC[C@H](N)C2)n1` [Example 426, 3-amino-6-(2,6-dimethyl-phenyl)-pyridine-2-carboxylic acid ((S)-3-amino-3,4,5,6-tetra-hydro-2H-[1,4′]bipyridinyl-3′-yl)-amideQ], for which the IC50 in assay [1] (read-out: IC50 (μM) PIM3), in assay [2] (read-out: IC50 (μM) PIM1) and in assay [4] (read-out: IC50 (μM) PIM2) was less than 1 µM each time. The EC50 in assay [3] (read-out: EC50 (μM) HEL 92.1.7) lay within 5 to 10 µM.

As to `COc1cc(F)ccc1-c1ccc(N)c(C(=O)Nc2cnccc2N2CCC[C@H](N)C2)n1` [Example 428, 3-amino-6-(4-fluoro-2-methoxy-phenyl)-pyridine-2-carboxylic acid ((S)-3-amino-3,4,5,6-tetra-hydro-2H-[1,4′]bipyridinyl-3′-yl)-amide], the IC50 in assay [1] (read-out: IC50 (μM) PIM3), in assay [2] (read-out: IC50 (μM) PIM1) and in assay [4] (read-out: IC50 (μM) PIM2) was less than 1 µM in each case. In addition, the EC50 in assay [3] (read-out: EC50 (μM) HEL 92.1.7) lay in the range of 5 to 10 µM.

Turning to `Cc1cc(Cl)ccc1-c1ccc(N)c(C(=O)Nc2cnccc2N2CCC[C@H](N)C2)n1` [Example 429, 3-amino-6-(4-chloro-2-methyl-phenyl)-pyridine-2-carboxylic acid ((S)-3-amino-3,4,5,6-tetra-hydro-2H-[1,4′]bipyridinyl-3′-yl)-amide], the IC50 in assay [1] (read-out: IC50 (μM) PIM3), in assay [2] (read-out: IC50 (μM) PIM1) and in assay [4] (read-out: IC50 (μM) PIM2) was less than 1 µM in each case. The EC50 in assay [3] (read-out: EC50 (μM) HEL 92.1.7) lay within 5 to 10 µM.

As to `Cc1cc(F)ccc1-c1ccc(N)c(C(=O)Nc2cnccc2N2CCC[C@H](N)C2)n1` [Example 430, 3-amino-6-(4-fluoro-2-methyl-phenyl)-pyridine-2-carboxylic acid ((S)-3-amino-3,4,5,6-tetra-hydro-2H-[1,4′]bipyridinyl-3′-yl)-amide], the IC50 in assay [1] (read-out: IC50 (μM) PIM3), in assay [2] (read-out: IC50 (μM) PIM1) and in assay [4] (read-out: IC50 (μM) PIM2) was less than 1 µM in each case. In assay [3] (read-out: EC50 (μM) HEL 92.1.7), the concentration giving a half-maximal response (EC50) lay in the range of 1 to 5 µM.

On to `COc1ncccc1-c1ccc(N)c(C(=O)Nc2cnccc2N2CCCCC2)n1` [Example 587, 5-amino-2′-methoxy-[2,3′]bi-pyridinyl-6-carboxylic acid (3,4,5,6-tetrahydro-2H-[1,4′]bipyridinyl-3′-yl)-amide], for which the IC50 in assay [1] (read-out: PIM3 IC50), in assay [2] (read-out: PIM1 IC50) and in assay [4] (read-out: PIM2 IC50) was less than 1 µM in each case. Moreover, the EC50 in assay [3] (read-out: HEL 92.1.7 EC50) is less than 1 µM.

Take `Cc1ccccc1-c1cnc(N)c(C(=O)Nc2[nH]c(=O)ncc2N2CCCCC2)n1` [Example 591, 3-amino-6-o-tolyl-pyrazine-2-carboxylic acid (2-oxo-5-piperidin-1-yl-2,3-dihydro-pyrimidin-4-yl)-amide]: the IC50 in assay [1] (read-out: PIM3 IC50), in assay [2] (read-out: PIM1 IC50) and in assay [4] (read-out: PIM2 IC50) was less than 1 µM each time. Further, the EC50 in assay [3] (read-out: HEL 92.1.7 EC50) lay within 5 to 10 µM.
